Results on six compounds are retold here after US8940498B2, “Biological assays for the characterization of cells using single-cell tracking and uses thereof” (priority 2012, dated 2015).

Series [1] concerns HeLa cells. Conditions: for Average CQI: CQI Formula 1.
The subject of series [2] is HeLa cells. Description: Classical clonogenic end-point assay. The settings on record: 0.25 μM for 30 min. The class given is cell-based.
The subject of series [3] is HeLa cells. Description: cells. Conditions: Homo sapiens, read-out: Average CQI, % of control.
The mark [4] stands for this setting: HeLa cells, 0.25 μM, normalized by 200 progenitors.
Where [5] appears, read: exposure to non-cytotoxic doses.

Like-named read-outs stand apart in the source and are kept apart here.

With `CC[C@@]1(O)C(=O)OCc2c1cc1n(c2=O)Cc2cc3ccccc3nc2-1` [CPT, camptothecin], the “Average CQI” value in the series with HeLa cells [1] (HeLa cells, 0.1 μM) came out at 9.3. Also, in the series with HeLa cells [1] (HeLa cells, 0.25 μM), the “CQI (Formula 2)” value is on record as 0.026, the “total MD versus control” value is “reduced” and the “Average CQI” value came to 6.2. In addition, in the series on HeLa cells [1] (setting [4]), the “DD (number of dipolar division events)” value amounted to 1059 ± 95; the “MD (multipolar division, TD+QD+HD)” value is recorded as 27.0 ± 4.5; the “QD (number of quadripolar division events)” value came out at 4.0 ± 1.2; the “TD (number of tripolar division events)” value came to 23.0 ± 3.2. The “Total DV (total cell division, DD+TD+QD+HD)” value with HeLa cells [1] (setting [4]) turned out to be 1086 ± 9.7. The “Average CQI” value in the series on HeLa cells [1] (HeLa cells, 1 μM) worked out at 1.8. The “CD induction and cell growth suppression” value in the series on HeLa cells [1] (HeLa cells, at non-cytotoxic dose (0.1 μM CPT, 1 μM MNNG)) is listed as “neither CD induction nor cell growth suppression”. In the series on HeLa cells [1] (HeLa cells, by average CQI), this compound came in with a non-cytotoxic dose of 0.1 µM and a sub-cytotoxic dose of 0.25 µM. In addition, the cell survival in the series on HeLa cells [2] was 95%. For the same compound, in the series on HeLa cells [3], the activity at 0.1 µM worked out at 102%, the activity at 0.25 µM was determined as 60% and the activity at 1 µM worked out at 22%.
Turning to `CC(=O)Nc1ccc(O)cc1` [acetaminophen], the “frequency of cells entering MD versus control cell populations” value in the series on HeLa cells [1] was “not observed”.
As for `[Cd]` [cadmium], the “frequency of cells entering MD versus control cell populations” value in the series with HeLa cells [1] (setting [5]) is reported as “more frequently found than control cell populations”.
In the case of `C=O` [formaldehyde], the “frequency of cells entering MD versus control cell populations” value in the series with HeLa cells [1] is “more frequently found than control cell populations”. The non-cytotoxic dose with HeLa cells [1] (human) fell in the range of 0.002 to 0.18 µM.
For the compound `CC(C)Cc1ccc(C(C)C(=O)O)cc1` (centres unmarked) [ibuprofen], the “frequency of cells entering MD versus control cell populations” value with HeLa cells [1] (setting [5]) is reported as “not observed”.
The same measure, in the same setting: the entry for arsenic acid is “more frequently found than control cell populations”.
